Experimental data: ChEMBL document CHEMBL4425188, “Synthesis and immunostimulatory activity of substituted TLR7 agonists” (Bioorg Med Chem Lett, 2016)
Activity calls are given as the source filed them. No cut-off for these calls is given here.

Columns and labels:
[1] = molecular target: T1, Toll-like receptor 9 (Homo sapiens) (UniProt Q9NR96); test: Agonist activity at human TLR9 expressed in HEK293 cells at 5 to 1000 ng/ml by QUANTI-blue SEAP reporter gene assay; format: cell-based
T1 sequence (whole entry): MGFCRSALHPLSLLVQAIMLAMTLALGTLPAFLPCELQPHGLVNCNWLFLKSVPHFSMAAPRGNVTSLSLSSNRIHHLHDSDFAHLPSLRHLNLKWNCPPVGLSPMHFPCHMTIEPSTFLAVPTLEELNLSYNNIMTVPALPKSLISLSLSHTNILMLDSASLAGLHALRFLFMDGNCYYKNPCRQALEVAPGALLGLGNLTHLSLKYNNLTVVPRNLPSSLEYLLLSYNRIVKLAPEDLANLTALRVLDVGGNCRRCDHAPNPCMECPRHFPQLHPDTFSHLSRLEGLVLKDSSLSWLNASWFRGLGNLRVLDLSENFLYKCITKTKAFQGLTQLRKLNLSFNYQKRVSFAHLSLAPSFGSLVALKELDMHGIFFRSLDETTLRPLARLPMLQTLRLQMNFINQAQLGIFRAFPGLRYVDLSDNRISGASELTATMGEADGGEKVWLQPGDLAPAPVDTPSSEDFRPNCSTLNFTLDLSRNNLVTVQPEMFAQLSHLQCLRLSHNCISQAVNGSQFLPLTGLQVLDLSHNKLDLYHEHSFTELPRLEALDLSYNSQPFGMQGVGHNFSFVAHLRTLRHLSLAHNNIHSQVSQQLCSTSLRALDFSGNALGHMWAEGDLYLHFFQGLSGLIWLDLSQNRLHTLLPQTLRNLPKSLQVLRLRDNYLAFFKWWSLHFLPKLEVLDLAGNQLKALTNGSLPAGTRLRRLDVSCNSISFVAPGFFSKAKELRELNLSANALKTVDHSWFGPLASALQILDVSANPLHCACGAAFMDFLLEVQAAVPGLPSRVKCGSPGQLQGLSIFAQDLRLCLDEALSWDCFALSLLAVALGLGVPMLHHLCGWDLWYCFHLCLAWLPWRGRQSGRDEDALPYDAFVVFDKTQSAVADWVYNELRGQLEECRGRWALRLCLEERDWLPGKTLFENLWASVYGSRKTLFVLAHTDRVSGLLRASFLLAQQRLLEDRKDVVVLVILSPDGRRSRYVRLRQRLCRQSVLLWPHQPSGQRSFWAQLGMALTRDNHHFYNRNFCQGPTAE

T-cell = test: Immunostimulatory activity in CFSE-labeled human T cells assessed as TLR7 agonist-induced cell proliferation at 2 to 200 nM after 6 days by FACS analysis; format: functional, cell-based
B cell = test: Immunostimulatory activity in CFSE-labeled human B cells assessed as TLR7 agonist-induced cell proliferation after 6 days by FACS analysis; format: functional, cell-based; conditions: 144 h
Homo sapiens = species: Homo sapiens; test: Immunostimulatory activity in CFSE-labeled human NK cells assessed as TLR7 agonist-induced cell proliferation at 2 to 200 nM after 6 days by FACS analysis; format: functional
[2] = molecular target: T2, Toll-like receptor 7 (Homo sapiens) (UniProt Q9NYK1); test: Agonist activity at human TLR7 expressed in HEK293 cells at <= 50 ng/ml by QUANTI-blue SEAP reporter gene assay; format: cell-based
T2 sequence (whole entry): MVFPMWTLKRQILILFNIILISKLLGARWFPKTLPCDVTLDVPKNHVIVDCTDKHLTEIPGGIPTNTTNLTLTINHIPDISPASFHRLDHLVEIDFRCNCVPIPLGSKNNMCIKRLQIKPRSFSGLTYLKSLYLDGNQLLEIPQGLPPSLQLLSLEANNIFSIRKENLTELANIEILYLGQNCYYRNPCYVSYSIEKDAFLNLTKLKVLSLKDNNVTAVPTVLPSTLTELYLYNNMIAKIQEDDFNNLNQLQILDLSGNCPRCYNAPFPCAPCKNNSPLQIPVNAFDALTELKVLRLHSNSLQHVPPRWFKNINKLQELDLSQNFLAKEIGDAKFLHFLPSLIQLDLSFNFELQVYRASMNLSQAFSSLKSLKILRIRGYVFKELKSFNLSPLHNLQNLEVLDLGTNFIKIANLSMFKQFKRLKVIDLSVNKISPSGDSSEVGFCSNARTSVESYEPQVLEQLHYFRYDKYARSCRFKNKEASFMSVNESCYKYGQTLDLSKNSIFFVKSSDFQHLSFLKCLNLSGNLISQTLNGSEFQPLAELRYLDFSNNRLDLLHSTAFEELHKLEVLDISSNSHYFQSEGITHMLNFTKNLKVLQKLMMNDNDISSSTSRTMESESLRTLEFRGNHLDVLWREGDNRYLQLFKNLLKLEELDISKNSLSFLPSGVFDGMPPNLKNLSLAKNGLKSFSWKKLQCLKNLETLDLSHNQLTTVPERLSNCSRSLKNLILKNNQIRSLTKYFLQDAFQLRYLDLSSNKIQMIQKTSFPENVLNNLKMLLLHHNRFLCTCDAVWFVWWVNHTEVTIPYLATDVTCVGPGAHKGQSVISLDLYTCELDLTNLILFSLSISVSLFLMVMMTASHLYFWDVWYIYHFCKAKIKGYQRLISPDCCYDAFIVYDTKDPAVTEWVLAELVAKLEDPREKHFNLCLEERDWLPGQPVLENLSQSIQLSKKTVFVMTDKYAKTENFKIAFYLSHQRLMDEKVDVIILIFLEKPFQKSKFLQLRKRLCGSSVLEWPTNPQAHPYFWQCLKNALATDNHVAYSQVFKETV

[3] = molecular target: T3, Toll-like receptor 8 (Homo sapiens) (UniProt Q9NR97); test: Agonist activity at human TLR8 expressed in HEK293 cells at 5 to 1000 ng/ml by QUANTI-blue SEAP reporter gene assay; format: cell-based
T3 sequence (whole entry): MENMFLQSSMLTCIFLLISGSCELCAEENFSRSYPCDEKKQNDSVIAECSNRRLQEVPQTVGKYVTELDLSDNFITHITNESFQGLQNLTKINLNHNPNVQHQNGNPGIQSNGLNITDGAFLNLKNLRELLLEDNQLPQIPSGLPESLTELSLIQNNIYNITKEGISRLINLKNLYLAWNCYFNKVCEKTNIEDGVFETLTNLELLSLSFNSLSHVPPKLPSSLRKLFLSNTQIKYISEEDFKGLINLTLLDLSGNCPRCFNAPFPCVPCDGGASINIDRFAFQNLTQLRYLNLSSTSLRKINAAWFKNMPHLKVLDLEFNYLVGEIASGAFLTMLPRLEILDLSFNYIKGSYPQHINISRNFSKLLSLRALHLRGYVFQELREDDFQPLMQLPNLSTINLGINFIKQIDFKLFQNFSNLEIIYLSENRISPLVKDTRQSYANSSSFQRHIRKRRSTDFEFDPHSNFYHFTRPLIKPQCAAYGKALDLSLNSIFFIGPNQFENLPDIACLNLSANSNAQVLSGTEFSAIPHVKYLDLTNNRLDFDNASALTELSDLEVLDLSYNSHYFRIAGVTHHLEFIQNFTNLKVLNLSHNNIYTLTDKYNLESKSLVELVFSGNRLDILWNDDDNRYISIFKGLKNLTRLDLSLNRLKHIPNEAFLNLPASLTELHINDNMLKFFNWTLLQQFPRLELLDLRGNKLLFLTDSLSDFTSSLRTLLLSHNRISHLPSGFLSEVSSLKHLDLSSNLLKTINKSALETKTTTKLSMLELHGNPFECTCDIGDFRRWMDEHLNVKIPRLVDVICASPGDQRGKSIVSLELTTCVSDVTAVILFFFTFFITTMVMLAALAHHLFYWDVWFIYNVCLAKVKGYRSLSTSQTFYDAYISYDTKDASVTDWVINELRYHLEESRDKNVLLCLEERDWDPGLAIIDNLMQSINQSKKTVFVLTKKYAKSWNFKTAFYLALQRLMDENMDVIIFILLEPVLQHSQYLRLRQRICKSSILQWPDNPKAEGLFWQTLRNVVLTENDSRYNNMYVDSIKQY

HEK293 = test: Induction of SEAP reporter gene expression in TLR-deficient HEK293 cells at 5 to 1000 ng/ml; format: functional, cell-based; conditions: Homo sapiens
[4] = molecular target: T2, Toll-like receptor 7 (Homo sapiens); test: Agonist activity at human TLR7 expressed in HEK293 cells at 1 ng/ml by QUANTI-blue SEAP reporter gene assay; format: cell-based

| Structure (SMILES) | Activity [1] | Activity (T-cell) | EC50 (B cell) [nM] | Activity (Homo sapiens) | Activity [2] | Activity [3] | Activity (HEK293) | Activity [4] |
| --- | --- | --- | --- | --- | --- | --- | --- | --- |
| CCCCOc1nc(N)c2nc(O)n(Cc3ccc(I)cc3)c2n1 | inactive | inactive | 126 | inactive | Active | inactive | inactive | – |
| CCCCOc1nc(N)c2nc(O)n(Cc3ccc(CCCN)cc3)c2n1 | inactive | – | – | – | Active | inactive | inactive | – |
| CCCCOc1nc(N)c2nc(O)n(Cc3ccc(C(=O)NCCOCCOCCNC(=O)CCC(=O)N4Cc5ccccc5C#Cc5ccccc54)cc3)c2n1 | inactive | – | – | – | Active | inactive | inactive | – |
| CCCCOc1nc(N)c2nc(SCC(=O)O)n(Cc3ccccc3)c2n1 | inactive | – | – | – | – | inactive | inactive | inactive |
| CCCCOc1nc(N)c2nc(NCC)n(Cc3ccccc3)c2n1 | inactive | – | – | – | – | inactive | inactive | – |
| CCCCOc1nc(N)c2nc(S)n(Cc3ccccc3)c2n1 | inactive | inactive | 2690 | inactive | Active | inactive | inactive | – |
| CCCCOc1nc(N)c2nc(SCCCCSc3nc4c(N)nc(OCCCC)nc4n3Cc3ccccc3)n(Cc3ccccc3)c2n1 | inactive | – | – | – | – | inactive | inactive | inactive |
| CCCCOc1nc(N)c2nc(O)n(Cc3ccc(C#CCO)cc3)c2n1 | inactive | inactive | 58.3 | inactive | Active | inactive | inactive | – |
| CCCCOc1nc(N)c2nc(SCc3ccc(C#N)cc3)n(Cc3ccccc3)c2n1 | inactive | – | – | – | – | inactive | inactive | inactive |
| CCCCOc1nc(N)c2nc(O)n(Cc3ccc(C(=O)NCCOCCOCCN)cc3)c2n1 | inactive | inactive | 26 | inactive | Active | inactive | inactive | – |
| CCCCOc1nc(N)c2nc(O)n(Cc3ccc(C(=O)O)cc3)c2n1 | inactive | inactive | 480 | inactive | Active | inactive | inactive | – |
| CCCCOc1nc(N)c2nc(O)n(Cc3ccc(C(=O)NCCCCN)cc3)c2n1 | inactive | inactive | 47.4 | inactive | Active | inactive | inactive | inactive |
| CCCCOc1nc(N)c2nc(SCc3ccccc3)n(Cc3ccccc3)c2n1 | inactive | – | – | – | – | inactive | inactive | inactive |
| CCCCOc1nc(N)c2nc(SCC(=O)OC(C)(C)C)n(Cc3ccccc3)c2n1 | inactive | – | – | – | – | inactive | inactive | inactive |
| CCCCOc1nc(N)c2nc(SCc3ccc(Br)cc3)n(Cc3ccccc3)c2n1 | inactive | – | – | – | – | inactive | inactive | inactive |
| CCCCOc1nc(N)c2nc(O)n(Cc3ccc(C(=O)NCCN)cc3)c2n1 | inactive | inactive | 52.4 | inactive | Active | inactive | inactive | – |
| CCCCOc1nc(N)c2nc(OCc3ccccc3)n(Cc3ccccc3)c2n1 | inactive | – | – | – | – | inactive | inactive | inactive |
| CCCCOc1nc(N)c2nc(O)n(Cc3ccc(C#CCN)cc3)c2n1 | inactive | – | – | – | Active | inactive | inactive | – |
| CCCCOc1nc(N)c2c(n1)n(Cc1ccccc1)c(=O)n2Cc1ccccc1 | inactive | – | – | – | – | inactive | inactive | inactive |
